In paper PMC12463058, “SF3A3 Drives Tumorigenesis in Endometrial Cancer by Enhancing c‐FOS Expression and Represents a Potential Therapeutic Target” (Advanced Science, 2025) one finds Kd data, which are given here for one compound.

For this assay, the target named is T1, splicing factor 3A subunit 3 (SF3A3) (Homo sapiens, UniProt Q12874).
T1 sequence (Q12874 1-501): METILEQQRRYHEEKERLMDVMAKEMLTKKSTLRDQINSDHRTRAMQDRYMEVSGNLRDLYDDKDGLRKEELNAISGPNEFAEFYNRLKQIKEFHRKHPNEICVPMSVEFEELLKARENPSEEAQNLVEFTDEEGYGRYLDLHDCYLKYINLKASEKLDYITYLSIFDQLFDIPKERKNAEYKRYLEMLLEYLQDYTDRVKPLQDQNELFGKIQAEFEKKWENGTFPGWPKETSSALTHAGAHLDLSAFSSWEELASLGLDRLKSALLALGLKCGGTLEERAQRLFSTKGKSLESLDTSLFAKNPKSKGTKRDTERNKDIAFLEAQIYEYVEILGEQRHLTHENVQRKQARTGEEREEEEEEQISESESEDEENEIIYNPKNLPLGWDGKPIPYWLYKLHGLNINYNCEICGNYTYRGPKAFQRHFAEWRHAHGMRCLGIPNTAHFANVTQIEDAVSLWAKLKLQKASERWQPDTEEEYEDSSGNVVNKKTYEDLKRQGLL
The experiment in a line: SPR (Biacore 8K, immobilized purified human SF3A3, steady-state affinity); supported by pulldown mass spectrometry. The assay is classed as binding.

The compound `S=C=NCCc1ccccc1` [PEITC] gave a Kd of 10.1 µM.
